The test system of this experiment is Ba/F3 ERBB2 YVMA. Description: Cell viability assay (CellTiter Glo), Ba/F3 cells engineered to express ERBB2 YVMA. It is filed as cell-based. Conditions: Mus musculus, BaF3, 72 h, Ba/F3 cells expressing human ERBB2 YVMA mutant; 72 hours; cell viability, CellTiter Glo; read-out: Ba/F3 ERBB2 YVMA, IC50. How it is done:
Cells were treated with compounds, and cell viability was measured as a metric of kinase inhibition.
BT-474, A431, MDA-MB-175VII, NCI-H1781, MCF7, and Ba/F3 cell lines were tested. The Ba/F3 cell line is IL-3-dependent mouse cell line derived from the C3H mouse strain. Ba/F3 cell lines were engineered to express human ERBB2 or EGFR kinases, rendering the cells IL-3 independent. The lines were generated via retroviral transduction utilizing a Moloney murine leukemia virus (MMLV) promoter, and constructs are stably integrated into the cell genome. The sequences of the ERBB2 and EGFR genes used were NCBI Reference Sequences NM 004448.3 and NM 005228.3, respectively.
BT-474, A431, MDA-MB-175VII, NCI-H1781 and MCF7 cells were grown in the appropriate growth medium as described in Table B2 below, and harvested at 50-80% confluence. BT-474, A431, MDA-MB-175VII, NCI-H1781 and MCF7 cells were counted and seeded at 2,000 or 1,500 cells per well in 384-well tissue culture plates (see Table B2). Similarly, Ba/F3 cell lines engineered to express EGFR, ERBB2, or ERBB2 mutants were grown, harvested, counted and seeded at 3000 cells per well in 96-well plates. A subset of wells contained media only (low control, “LC”).
Table B1 provides the growth media and number of cells seeded per well for the each cell line.
Compounds were dissolved in DMSO and serially diluted. Serially-diluted compound or a DMSO only control (high control, “HC”) was added to the plated cells in each well. Compounds were tested at concentrations of about 10 μM to 0.51 nM, using three-fold dilutions. The final proportion of DMSO never exceeded 0.1%.
Plates were placed in a 37° C., 5% CO2 incubator for 72 hours. Plates were then removed from the incubator and equilibrated for 15 minutes at room temperature. […] of CellTiter Glo reagent (Promega) was added to measure the relative level of metabolically active cells by quantifying intracellular ATP concentrations. Plates were incubated for 30 minutes at room temperature, and luminescence was measured. Percent viability was normalized to a vehicle control only using the following formula: % viability=100×(Lumsample−LumLC)/(LumHC−LumLC). Graphical curves were fitted using a nonlinear regression model with a sigmoidal dose response.

As for `Cc1cc(Nc2ncnc3cc4c(nc23)N2CCN(C(=O)/C=C/CN(C)C)[C@H](CO4)C2)ccc1Oc1ccc2c(c1)ncn2C` [Compound 6, (E)-4-(dimethylamino)-1-((10S)-4-((3-methyl-4-((1-methyl-1H-benzo[d]imidazol-5-yl)oxy)phenyl)amino)-7,8,10,11-tetrahydro-9H-6,10-methanopyrimido[4′,5′: 5,6]pyrido[3,2-b][1,4,7]oxadiazonin-9-yl)but-2-en-1-one], the IC50 was determined as 15.8 nM. With `Cc1cc(Nc2ncnc3cc4c(cc23)N2CCN(C(=O)/C=C/CN(C)C)[C@H](CO4)C2)ccc1Oc1ccc2c(c1)ncn2C` [Compound 7, (E)-4-(dimethylamino)-1-((10S)-4-((3-methyl-4-((1-methyl-1H-benzo[d]imidazol-5-yl)oxy)phenyl)amino)-7,8,10,11-tetrahydro-9H-6,10-methano[1,4,7]oxadiazonino[3,2-g]quinazolin-9-yl)but-2-en-1-one], the IC50 worked out at 78.7 nM.

For `Cc1cc(Nc2ncnc3cc4c(cc23)N2CCN(C(=O)/C=C/CN(C)C)[C@@H](CO4)C2)ccc1Oc1ccn2ncnc2c1` [Compound 8, (E)-1-((10R)-4-((4-([1,2,4]triazolo[1,5-a]pyridin-7-yloxy)-3-methylphenyl)amino)-7,8,10,11-tetrahydro-9H-6,10-methano[1,4,7]oxadiazonino[3,2-g]quinazolin-9-yl)-4-(dimethylamino)but-2-en-1-one], the IC50 is over 500 nM. `Cc1cc(Nc2ncnc3cc4c(cc23)N2CCN(C(=O)/C=C/CN(C)C)[C@H](CO4)C2)ccc1Oc1ccn2ncnc2c1` [Compound 9, (E)-1-((10S)-4-((4-([1,2,4]triazolo[1,5-a]pyridin-7-yloxy)-3-methylphenyl)amino)-7,8,10,11-tetrahydro-9H-6,10-methano[1,4,7]oxadiazonino[3,2-g]quinazolin-9-yl)-4-(dimethylamino)but-2-en-1-one]: the IC50 is 85.9 nM.

Take `Cc1cc(Nc2ncnc3cc4c(nc23)N2CCN(C(=O)/C=C/CN(C)C)[C@H](CO4)C2)ccc1Oc1ccn2ncnc2c1` [Compound 10, (E)-1-((10S)-4-((4-([1,2,4]triazolo[1,5-a]pyridin-7-yloxy)-3-methylphenyl)amino)-7,8,10,11-tetrahydro-9H-6,10-methanopyrimido[4′,5′:5,6]pyrido[3,2-b][1,4,7]oxadiazonin-9-yl)-4-(dimethylamino)but-2-en-1-one]: the IC50 turned out to be 7.02 nM. The same measure for `CC#CC(=O)N1CCN2C[C@H]1COc1cc3ncnc(Nc4ccc(Oc5ccc6c(c5)ncn6C)c(C)c4)c3cc12` [Compound 11]: 37.7 nM; for `CC#CC(=O)N1CCN2C[C@H]1COc1cc3ncnc(Nc4ccc(Oc5ccn6ncnc6c5)c(C)c4)c3cc12` [Compound 12, 1-((10S)-4-((4-([1,2,4]triazolo[1,5-a]pyridin-7-yloxy)-3-methylphenyl)amino)-7,8,10,11-tetrahydro-9H-6,10-methano[1,4,7]oxadiazonino[3,2-g]quinazolin-9-yl)but-2-yn-1-one]: 44 nM; for `Cc1cc(Nc2ncnc3cc4c(nc23)N2CCN(C(=O)/C=C/CN(C)C)[C@@H](CO4)C2)ccc1Oc1ccn2ncnc2c1` [Compound 15, (E)-1-((10R)-4-((4-([1,2,4]triazolo[1,5-a]pyridin-7-yloxy)-3-methylphenyl)amino)-7,8,10,11-tetrahydro-9H-6,10-methanopyrimido[4′,5′:5,6]pyrido[3,2-b][1,4,7]oxadiazonin-9-yl)-4-(dimethylamino)but-2-en-1-one]: 82.3 nM. As for `CC#CC(=O)N1CCN2C[C@H]1COc1cc3ncnc(Nc4ccc(Oc5ccc6c(c5)ncn6C)c(C)c4)c3nc12` [Compound 16, 1-((10S)-4-((3-methyl-4-((1-methyl-1H-benzo[d]imidazol-5-yl)oxy)phenyl)amino)-7,8,10,11-tetrahydro-9H-6,10-methanopyrimido[4′,5′:5,6]pyrido[3,2-b][1,4,7]oxadiazonin-9-yl)but-2-yn-1-one], the IC50 was 14 nM. In the case of `CC#CC(=O)N1CCN2C[C@@H]1COc1cc3ncnc(Nc4ccc(Oc5ccn6ncnc6c5)c(C)c4)c3cc12` [Compound 17, 1-((10R)-4-((4-([1,2,4]triazolo[1,5-a]pyridin-7-yloxy)-3-methylphenyl)amino)-7,8,10,11-tetrahydro-9H-6,10-methano[1,4,7]oxadiazonino[3,2-g]quinazolin-9-yl)but-2-yn-1-one], the IC50 is over 500 nM. The same measure for `CC#CC(=O)N1CCN2C[C@H]1COc1cc3ncnc(Nc4ccc(Oc5ccn6ncnc6c5)c(C)c4)c3nc12` [Compound 18, 1-((10S)-4-((4-([1,2,4]triazolo[1,5-a]pyridin-7-yloxy)-3-methylphenyl)amino)-7,8,10,11-tetrahydro-9H-6,10-methanopyrimido[4′,5′:5,6]pyrido[3,2-b][1,4,7]oxadiazonin-9-yl)but-2-yn-1-one]: 21.6 nM. Regarding `Cc1ccc(Oc2ccc(Nc3ncnc4cc5c(nc34)N3CCN(C(=O)/C=C/CN(C)C)[C@H](CO5)C3)cc2C)cn1` [Compound 21, (E)-4-(dimethylamino)-1-((10S)-4-((3-methyl-4-((6-methylpyridin-3-yl)oxy)phenyl)amino)-7,8,10,11-tetrahydro-9H-6,10-methanopyrimido[4′,5′:5,6]pyrido[3,2-b][1,4,7]oxadiazonin-9-yl)but-2-en-1-one], the IC50 amounted to 5.23 nM.

For `C=C(F)C(=O)N1CCN2C[C@H]1COc1cc3ncnc(Nc4ccc(Oc5ccn6ncnc6c5)c(C)c4)c3nc12` [Compound 23, 1-((10S)-4-((4-([1,2,4]triazolo[1,5-a]pyridin-7-yloxy)-3-methylphenyl)amino)-7,8,10,11-tetrahydro-9H-6,10-methanopyrimido[4′,5′:5,6]pyrido[3,2-b][1,4,7]oxadiazonin-9-yl)-2-fluoroprop-2-en-1-one], the IC50 turned out to be 222 nM. For the molecule `Cc1cc(Nc2ncnc3cc4c(nc23)N2CCN(C(=O)/C=C/CN(C)C)[C@H](CO4)C2)c(F)cc1Oc1ccn2ncnc2c1` [Compound 24, (E)-1-((10S)-4-((4-([1,2,4]triazolo[1,5-a]pyridin-7-yloxy)-2-fluoro-5-methylphenyl)amino)-7,8,10,11-tetrahydro-9H-6,10-methanopyrimido[4′,5′:5,6]pyrido[3,2-b][1,4,7]oxadiazonin-9-yl)-4-(dimethylamino)but-2-en-1-one], the IC50 amounted to 6.4 nM. The same measure for `Cc1cc(Nc2ncnc3cc4c(nc23)N2CCN(C(=O)/C=C/CN(C)C)[C@H](CO4)C2)ccc1Oc1cccnc1` [Compound 25, (E)-4-(dimethylamino)-1-((10S)-4-((3-methyl-4-(pyridin-3-yloxy)phenyl)amino)-7,8,10,11-tetrahydro-9H-6,10-methanopyrimido[4′,5′:5,6]pyrido[3,2-b][1,4,7]oxadiazonin-9-yl)but-2-en-1-one]: 2.02 nM.

Consider `Cc1cc(Nc2ncnc3cc4c(nc23)N2CCN(C(=O)/C=C/[C@H]3CCCN3C)[C@H](CO4)C2)ccc1Oc1ccn2ncnc2c1` [Compound 27, (E)-1-((10S)-4-((4-([1,2,4]triazolo[1,5-a]pyridin-7-yloxy)-3-methylphenyl)amino)-7,8,10,11-tetrahydro-9H-6,10-methanopyrimido[4′,5′:5,6]pyrido[3,2-b][1,4,7]oxadiazonin-9-yl)-3-((R)-1-methylpyrrolidin-2-yl)prop-2-en-1-one], for which the IC50 was found to be 10.6 nM. Take `Cc1cc(Nc2ncnc3cc4c(nc23)N2CCN(C(=O)/C=C/[C@@H]3CCCN3C)[C@H](CO4)C2)ccc1Oc1ccn2ncnc2c1` [Compound 28, (E)-1-((10S)-4-((4-([1,2,4]triazolo[1,5-a]pyridin-7-yloxy)-3-methylphenyl)amino)-7,8,10,11-tetrahydro-9H-6,10-methanopyrimido[4′,5′:5,6]pyrido[3,2-b][1,4,7]oxadiazonin-9-yl)-3-((S)-1-methylpyrrolidin-2-yl)prop-2-en-1-one]: the IC50 is 6.84 nM. The same measure for `Cc1cc(Nc2ncnc3cc4c(nc23)N2CCN(C(=O)/C=C/[C@@H](C)N(C)C)[C@H](CO4)C2)ccc1Oc1ccn2ncnc2c1` [Compound 29, (4R,E)-1-((10S)-4-((4-([1,2,4]triazolo[1,5-a]pyridin-7-yloxy)-3-methylphenyl)amino)-7,8,10,11-tetrahydro-9H-6,10-methanopyrimido[4′,5′:5,6]pyrido[3,2-b][1,4,7]oxadiazonin-9-yl)-4-(dimethylamino)pent-2-en-1-one]: 19.6 nM; for `CN(C)C/C=C/C(=O)N1CCN2C[C@H]1COc1cc3ncnc(Nc4ccc(Oc5ccn6ncnc6c5)cc4)c3nc12` [Compound 31, (E)-1-((10S)-4-((4-([1,2,4]triazolo[1,5-a]pyridin-7-yloxy)phenyl)amino)-7,8,10,11-tetrahydro-9H-6,10-methanopyrimido[4′,5′:5,6]pyrido[3,2-b][1,4,7]oxadiazonin-9-yl)-4-(dimethylamino)but-2-en-1-one]: 19.9 nM.

Source of the values: patent US11807649B2, “Fused tetracyclic quinazoline derivatives as inhibitors of ErbB2” (EnLiven Therapeutics, Inc., priority 2021, dated 2023).
